{"source": "patent US20230392195A1", "about": "“SYNTHETIC LETHALITY-MEDIATED PRECISION ONCOLOGY VIA TUMOR TRANSCRIPTOME” (The United States of America, as Represented by the …, priority 2020, published 2023)", "origin": "cited, not measured here", "test_system": "advanced solid tumors", "details": "individual patient case: everolimus in an neuroendocrine cancer patient, cabozantinib in a colon cancer patient", "data": [{"smiles": "CO[C@H]1C[C@@H]2CC[C@@H](C)[C@@](O)(O2)C(=O)C(=O)N2CCCC[C@H]2C(=O)O[C@H]([C@H](C)C[C@@H]2CC[C@@H](OCCO)[C@H](OC)C2)CC(=O)[C@H](C)/C=C(\\C)[C@@H](O)[C@@H](OC)C(=O)[C@H](C)C[C@H](C)/C=C/C=C/C=C/1C", "note": "[everolimus]", "values": [{"measurement": "response to the therapy in the trial", "result": "responded"}]}]}
